Measurements taken from the supplement of paper PMC10307832.

Columns and labels:
Assay in all cases: relative viability (nuclei count vs DMSO), 5 days (fraction); higher = more cells survive
Midostaurin + Pictilisib = compound: CO[C@@H]1[C@H](N(C)C(=O)c2ccccc2)C[C@H]2O[C@]1(C)n1c3ccccc3c3c4c(c5c6ccccc6n2c5c31)C(=O)NC4 [Midostaurin] + CS(=O)(=O)N1CCN(Cc2cc3nc(-c4cccc5[nH]ncc45)nc(N4CCOCC4)c3s2)CC1 [Pictilisib] (partner 1 µM)
How it was run: (§1)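 Medians of duplicate plates are given as relative viability. That measure is the nuclei count in treated wells divided by the count in vehicle wells. Counts were taken on 4× images of lung cancer cell lines in 1536-well plates, 5 days after pin-tool dosing the day after seeding with one drug alone or a fixed anchor-drug dose plus five library-drug doses (not always all listed) in √10 steps.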

Midostaurin + AZD7762 = compound: CO[C@@H]1[C@H](N(C)C(=O)c2ccccc2)C[C@H]2O[C@]1(C)n1c3ccccc3c3c4c(c5c6ccccc6n2c5c31)C(=O)NC4 [Midostaurin] + NC(=O)Nc1cc(-c2cccc(F)c2)sc1C(=O)N[C@H]1CCCNC1 [AZD7762] (partner 0.2 µM)
How it was run: as §1

Midostaurin + Lapatinib = compound: CO[C@@H]1[C@H](N(C)C(=O)c2ccccc2)C[C@H]2O[C@]1(C)n1c3ccccc3c3c4c(c5c6ccccc6n2c5c31)C(=O)NC4 [Midostaurin] + CS(=O)(=O)CCNCc1ccc(-c2ccc3ncnc(Nc4ccc(OCc5cccc(F)c5)c(Cl)c4)c3c2)o1 [Lapatinib] (partner 2 µM)
How it was run: as §1

[1] = compound: COc1cc(-c2nn([C@H]3CC[C@H](N4CCN(C(C)=O)CC4)CC3)c3ncnc(N)c23)ccc1NC(=O)c1cc2ccccc2n1C + N=C(N)NC(=N)NCCc1ccccc1 [Phenformin] (partner 250 µM)
How it was run: as §1

Midostaurin + Trametinib = compound: CO[C@@H]1[C@H](N(C)C(=O)c2ccccc2)C[C@H]2O[C@]1(C)n1c3ccccc3c3c4c(c5c6ccccc6n2c5c31)C(=O)NC4 [Midostaurin] + CC(=O)Nc1cccc(-n2c(=O)n(C3CC3)c(=O)c3c(Nc4ccc(I)cc4F)n(C)c(=O)c(C)c32)c1 [Trametinib] (partner 0.02 µM)
How it was run: as §1

Cell Line	relative viability (Midostaurin + Pictilisib; first compound 0.01 µM)	relative viability (Midostaurin + Pictilisib; first compound 0.03162 µM)	relative viability (Midostaurin + Pictilisib; first compound 0.1 µM)	relative viability (Midostaurin + Pictilisib; first compound 0.3162 µM)	relative viability (Midostaurin + AZD7762; first compound 0.01 µM)	relative viability (Midostaurin + AZD7762; first compound 0.03162 µM)	relative viability (Midostaurin + AZD7762; first compound 0.1 µM)	relative viability (Midostaurin + AZD7762; first compound 0.3162 µM)	relative viability (Midostaurin + Lapatinib; first compound 0.01 µM)	relative viability (Midostaurin + Lapatinib; first compound 0.03162 µM)	relative viability (Midostaurin + Lapatinib; first compound 0.1 µM)	relative viability (Midostaurin + Lapatinib; first compound 0.3162 µM)	relative viability ([1]; first compound 0.0128 µM)	relative viability ([1]; first compound 0.04048 µM)	relative viability ([1]; first compound 0.128 µM)	relative viability ([1]; first compound 1.28 µM)	relative viability (Midostaurin + Trametinib; first compound 0.01 µM)	relative viability (Midostaurin + Trametinib; first compound 0.03162 µM)	relative viability (Midostaurin + Trametinib; first compound 0.1 µM)	relative viability (Midostaurin + Trametinib; first compound 0.3162 µM)
PC-14	0.674	0.61	0.633	0.75	0.33	0.42	0.329	0.328	0.345	0.289	0.302	0.266	0.646	0.599	0.581	0.751	0.707	0.914	0.692	0.635
NCI-H650	0.829	0.794	0.835	0.628	1.01	1.04	0.942	1.11	0.838	0.988	0.582	0.687	0.519	0.593	0.459	0.462	1.03	1.07	1	0.945
NCI-H1666	0.406	0.359	0.523	0.516	0.881	0.804	0.911	0.778	0.74	0.617	0.81	0.634	0.568	0.567	0.577	0.537	0.823	0.882	0.711	0.81
NCI-H2085	0.501	0.428	0.448	0.446	0.938	0.998	0.93	0.623	0.759	0.857	0.823	0.639	0.756	0.655	0.781	0.654	0.526	0.53	0.471	0.608
NCI-H1734	0.465	0.424	0.496	0.303	0.498	0.537	0.543	0.39	1.01	1.1	1.07	1.12	0.331	0.297	0.391	0.379	0.625	0.678	0.691	0.685
NCI-H2126	0.541	0.441	0.499	0.523	0.95	0.926	0.995	1.03	0.753	0.687	0.808	0.833	0.534	0.501	0.539	0.435	0.509	0.562	0.553	0.597
EMC-BAC-2	0.559	0.454	0.494	0.475	1.08	1.03	1.04	1.08	0.869	0.828	0.872	0.885	0.563	0.633	0.499	0.422	0.853	0.791	0.876	0.699
NCI-H1993	0.775	0.817	0.898	0.722	0.762	0.77	0.699	0.5	0.831	0.805	0.809	0.79	0.539	0.509	0.486	0.488	0.484	0.537	0.447	0.462
NCI-H647	0.387	0.532	0.311	0.294	0.576	0.392	0.41	0.324	0.932	1.12	0.768	0.646	0.526	0.528	0.428	0.4	0.491	0.593	0.552	0.372
NCI-H1792	0.323	0.25	0.257	0.244	0.786	0.725	0.67	0.176	0.932	0.875	0.862	0.91	0.263	0.288	0.369	0.309	0.508	0.37	0.383	0.338
LOU-NH91	0.541	0.54	0.514	0.562	0.791	0.724	0.778	0.809	0.736	0.736	0.811	0.924	0.768	0.778	0.808	0.649	0.758	0.717	0.814	0.804
NCI-H2405	0.464	0.516	–	0.379	0.682	0.804	0.847	0.75	1.03	1.27	–	1.11	0.408	0.272	0.409	0.28	0.615	0.562	0.61	0.607
LCLC-97TM1	0.199	–	0.163	0.313	0.169	0.287	0.223	0.275	0.73	–	0.846	1.12	0.501	0.377	0.461	0.416	0.266	0.194	0.195	0.184
NCI-H596	0.376	0.435	0.435	0.424	1.25	1.13	1.1	1.05	1.21	1.12	1.13	1.34	0.665	0.896	0.657	0.579	0.835	0.847	0.737	0.999
NCI-H727	0.491	0.301	0.378	0.329	0.616	0.696	0.947	0.639	1.02	0.739	0.91	0.728	0.559	–	0.495	0.619	0.381	0.444	0.369	0.375
